From patent publication US10653700B2, “Composition comprising a therapeutic agent and a respiratory stimulant and methods for the use thereof” (priority 2015, dated 2020)
Structures can show the parent of a compound that is named as a salt. Where two headings read alike, the source gives them in different places.

Legend:
AMPA receptor [1] = details: in vivo; cited from earlier work
AMPA receptor [2] = details: human, in vivo; cited from earlier work
[3] = intravenous; cited from earlier work
[4] = rat, IV, single dose; cited from earlier work
[5] = mice; cited from earlier work
[6] = humans, severe life-threatening side effects; cited from earlier work
[7] = cited from earlier work
[8] = obstructive sleep apnea, four subjects; cited from earlier work
[9] = carotid body denervated rats; cited from earlier work
[10] = cited from earlier work; remark: listed apart in the source
[11] = lambs; cited from earlier work
[12] = carotid sinus nerve transection; cited from earlier work
[13] = cited from earlier work; remark: listed apart in the source
[14] = rhesus monkeys; cited from earlier work
[15] = in blood; cited from earlier work
[16] = cited from earlier work; remark: listed apart in the source
[17] = cited from earlier work; remark: listed apart in the source
[18] = chronic administration, multi-year trials; cited from earlier work
[19] = minute volume after intravenous doxapram enantiomers in rats; assay type: in vivo; details: for behavioral side effects (agitation, seizures): rats
[20] = minute volume after intravenous doxapram enantiomers in cynomolgus monkeys; assay type: in vivo; details: for behavioral side effects (agitation, seizures): monkeys
[21] = blood pressure in conscious rats; assay type: in vivo; details: doses that were moderately respiratory stimulant
[22] = healthy volunteers, room air VE unchanged

Question: With `O=C(c1ccc2nonc2c1)N1CCOCC1` [CX717] as the compound, how does the “effect on respiratory depression” value (AMPA receptor [1]) read?
Answer: The value was “able to reverse the respiratory depressive effects”.

Question: What about the “respiratory rate vs. placebo” value (AMPA receptor [2]) of the same compound?
Answer: Its value is “prevented the fall in respiratory rate”.

Question: With `CCN1CC(CCN2CCOCC2)C(c2ccccc2)(c2ccccc2)C1=O` (racemic) [doxapram, 1-ethyl-4-[2-(4-morpholinyl)ethyl]-3,3-diphenyl-2-pyrrolidinone monohydrochloride, monohydrate] as the compound, how does the duration of effect [3] read?
Answer: Its duration of effect is 5 to 12 min.

Question: And the half-life [3]?
Answer: Its half-life is 3.4 h.

Question: What about the onset [3] of the same compound?
Answer: Its onset is 20 to 40 s.

Question: What about the peak plasma time [3] of the same compound?
Answer: The peak plasma time was 1 to 2 min.

Question: What about the LD50 [4] of the same compound?
Answer: The LD50 was 72 mg/kg.

Question: What about the LD50 [5] of the same compound?
Answer: Its LD50 is 85 mg/kg.

Question: What about the therapeutic window [6] of the same compound?
Answer: Its therapeutic window is 20-40 fold.

Question: And the T1/2 ([7]; 1.5 mg/kg bolus)?
Answer: Its T1/2 is 3.4 h.

Question: And the peak in serum ([7]; 1.5 mg/kg bolus)?
Answer: Its peak in serum is “around 3 μg/ml”.

Question: What about the peak plasma concentration ([7]; 300 mg oral administration) of the same compound?
Answer: Its peak plasma concentration is 0.96 µg/mL.

Question: And the peak plasma concentration ([7]; IV infusion 3.5 mg/kg/hr for 2 hours)?
Answer: Its peak plasma concentration is 4.0 µg/mL.

Question: What about the T1/2 ([7]; after stop of IV infusion 3.5 mg/kg/hr for 2 hours) of the same compound?
Answer: The T1/2 was 3.9 h.

Question: What about the “effect on minute ventilation, time span” value ([7]; in vivo) of the same compound?
Answer: Its value is 0 to 10 min.

Question: What about the “return of minute ventilation to baseline” value ([7]; in vivo) of the same compound?
Answer: The value was ≤ 15 min.

Question: What about the oxyhemoglobin desaturation events [8] of the same compound?
Answer: The oxyhemoglobin desaturation events was “decreased the duration and severity”.

Question: And the blood pressure [9]?
Answer: Its blood pressure is “increased blood pressure”.

Question: For `COc1ccc2c3c1O[C@H]1C(=O)CC[C@H]4[C@@H](C2)N(C)CC[C@]314.O=C(O)C(O)C(O)C(=O)O` [hydrocodone bitartrate], which “maximum plasma concentration (Cmax)” value ([10]; after 15 mg hydrocodone to a human subject, depending on formulation) is on record?
Answer: The value was 1 to 40.

Question: With `CCN1CC(CCN2CCOCC2=O)C(c2ccccc2)(c2ccccc2)C1=O` (centres unmarked) [AHR 5955, ketodoxapram] as the compound, how does the activity of metabolite [11] read?
Answer: Its activity of metabolite is “metabolically active in lambs in a dose dependent fashion”.

Question: With `CCCNc1nc(NCCC)nc(N(C)OC)n1` [GAL-021] as the compound, how does the “reduction of GAL-021-induced respiratory stimulation” value [12] read?
Answer: Its value is “about 85%”.

Question: And the “VE (AUE 0-1 h)” value ([13]; 1-h continuous infusions)?
Answer: The value was “statistically significant increases”.

Question: What about the “time to half-maximal effect on VE and ETCO2” value ([13]; 1-h continuous infusions) of the same compound?
Answer: Its value is < 10 min.

Question: What about the “distribution t1/2” value ([13]; after infusion) of the same compound?
Answer: Its value is 0.5 h.

Question: And the “terminal t1/2” value ([13]; after infusion)?
Answer: The value was 5 to 7 h.

Question: What does the source list for `COc1ccc2c3c1O[C@H]1C(=O)CC[C@H]4[C@@H](C2)N(C)CC[C@]314` [hydrocodone]?
Answer: analgesic potency versus morphine [14]: higher than morphine; bound to protein [15]: 20-50%; serum half-life ([16]; average): 3.8 h; metabolism attributed to non-cytochrome-catalyzed reactions ([16]; in vivo): Approximately 40%; blood and plasma concentration ([10]; acute, fatal overdose): 100-1,600 μg/L; blood and plasma concentration ([10]; people taking the drug therapeutically): 5 to 30 µg/L; blood and plasma concentration ([10]; recreational users): 100 to 200 µg/L

Question: Which results are given for `C=CCNc1nc(NCC=C)nc(N2CCN(C(c3ccc(F)cc3)c3ccc(F)cc3)CC2)n1` [almitrine, N,N′-Diallyl-6-[4-(4,4′difluorobenzhydryl)piperazin-1-yl]-1,3,5-triazine-2,4-diyldiamine]?
Answer: LD50 [5]: > 200 mg/kg; plasma level at which slope of hypercapnic ventilatory response increased [17, 22]: > 200 ng/mL; plasma level at which slope of hypoxic ventilatory response increased [17, 22]: > 50 ng/mL; increase in VE above baseline ([17]; room air, plasma concentrations exceeding approximately 250 μg/ml): about 11%; weight loss [18]: > 15%

Question: Which minute volume ([19]; intravenous, drug naïve and opioid challenged rats) does the source give for `CCN1CC(CCN2CCOCC2)C(c2ccccc2)(c2ccccc2)C1=O` (centres unmarked) [GAL-054] here?
Answer: Its minute volume is “dose-dependently increased minute volume”.

Question: What about the “behavioral side effects (agitation, seizures)” value (shortened to “behavioral side effects”) [19] of the same compound?
Answer: The value was “minimal behavioral changes”.

Question: What about the minute volume ([20]; intravenous, drug naïve and opioid challenged cynomolgus monkeys) of the same compound?
Answer: The minute volume was “dose-dependently increased minute volume”.

Question: And the “behavioral side effects” value [20]?
Answer: Its value is “minimal behavioral changes”.

Question: What about the “increase in blood pressure above baseline values” [21] of the same compound?
Answer: Its value is 15-20%.

Question: With `CCN1CC(CCN2CCOCC2)C(c2ccccc2)(c2ccccc2)C1=O` (centres unmarked) [GAL-053] as the compound, how does the “behavioral side effects” value [19] read?
Answer: Its value is “agitation and seizures were restricted to GAL-053”.

Question: And the “behavioral side effects” value [20]?
Answer: The value was “agitation and seizures were restricted to GAL-053”.
